Legend:
[1] = tested on: Escherichia coli JB525 (E. coli MT102 harboring the gfp plasmid pJBA132); assay: Escherichia coli JB525 assay (quorum sensing inhibition); assay type: cell-based
vibrio harveyi = vibrio harveyi assay (quorum sensing inhibition); assay type: cell-based

Compound: O=C(/C=C/CCl)O[C@@H]1COC(=O)C1 [Honaucin A]
- inhibition of AI-1 and AI-2 mediated quorum sensing [1]: good inhibition
- inhibition of AI-1 and AI-2 mediated quorum sensing (vibrio harveyi): good inhibition
